Laboratory results published in patent publication EP0903346A1, “SYDNONE IMINE DERIVATIVES” (Chugai Seiyaku Kabushiki Kaisha, priority 1995, dated 1997).

System: isolated rat aorta
Assay: Test with the use of isolated rat aorta (relaxation of potassium chloride contraction)
Conditions: read-out: Rat aorta IC50
Description: The thoracic aorta was taken out from male Sprague Dawley rats weighing 450 to 600 g and cut into circular samples of 2 mm in width. […] The contraction reactions of the samples were isometrically recorded with FD pick-up. After 1 to 1.5 hours of equilibration, 30 mM potassium chloride was added to contract the tissue. […] As the test compounds, the invention compounds obtained in the above Examples were employed.

Row | SMILES | IC50
1 | COc1cc(CC(=O)N2CCN([n+]3cc([N-]C(=O)CSC(C)=O)on3)CC2)cc(OC)c1OC [Example 40, N-((Acetylthio)acetyl)-3-(4-((3,4,5-trimethoxyphenyl)acetyl)piperazin-1-yl)sydnonimine] | 280 nM

Same assay, conditions: relaxation of continuous contraction due to 30 mM potassium chloride, thoracic aorta of male Sprague Dawley rats, read-out: Rat aorta IC50

Row | SMILES | IC50
2 | CC1CCCC(C)N1[n+]1cc([N-]C(=O)CSc2cc(C(C)(C)C)c(O)c(C(C)(C)C)c2)on1 (centres unmarked) [Example 13, N-((3,5-Di-t-butyl-4-hydroxyphenylthio)acetyl)-3-(2,6-dimethylpiperidin-1-yl)sydnonimine] | 550 nM
3 | CC(=O)SC[C@@H](C)C(=O)[N-]c1c[n+](N2CCN(C(=O)[C@H](C)CSC(=O)c3ccccc3)CC2)no1 [Example 29, N-((S)-3-(Acetylthio)isobutyryl)-3-(4-((S)-3-(benzoylthio)isobutyryl)piperazin-1-yl)sydnonimine] | 630 nM
4 | CC(=O)SC[C@@H](C)C(=O)[N-]c1c[n+](N2CCOCC2)no1 [Example 67, N-((S)-3-(Acetylthio)isobutyryl)-3-morpholinosydnonimine] | 540 nM
5 | CC1CCCC(C)N1[n+]1cc([N-]C(=O)CSC(=O)c2ccccc2)on1 (centres unmarked) [Example 16, N-((Benzoylthio)acetyl)-3-(2,6-dimethylpiperidin-1-yl)sydnonimine] | 56 nM
6 | C[C@H](CSC(=O)c1ccccc1)C(=O)[N-]c1c[n+](N2CCOCC2)no1 [Example 4, N-((S)-3-(Benzoylthio)isobutyryl)-3-morpholinosydnonimine] | 23 nM
7 | COc1cc(CN2CCN([n+]3cc([N-]C(=O)CSC(C)=O)on3)CC2)cc(OC)c1OC [Example 48, N-((Acetylthio)acetyl)-3-(4-(3,4,5-trimethoxyphenylmethyl)piperazin-1-yl)sydnonimine] | 110 nM
8 | O=C(CSC(=O)c1ccccc1)[N-]c1c[n+](N2CCN(C(=O)CSC(=O)c3ccccc3)CC2)no1 [Example 31] | 36 nM
9 | C[C@H](CSC(=O)c1ccccc1)C(=O)[N-]c1c[n+](N2CCN(CCSC(=O)c3ccccc3)CC2)no1 [Example 52-B, N-((S)-3-(Benzoylthio)isobutyryl)-3-(4-(2-(benzoylthio)ethyl)piperazin-1-yl)sydnonimine] | 420 nM
10 | COc1ccc(CN2CCN([n+]3cc([N-]C(=O)CSC(=O)c4ccccc4)on3)CC2)c(OC)c1OC [Example 51, N-((Benzoylthio)acetyl)-3-(4-(2,3,4-trimethoxyphenylmethyl)piperazin-1-yl)sydnonimine] | 300 nM
11 | CC(=O)SC[C@@H](C)C(=O)[N-]c1c[n+](N2CCN(C(=O)CSc3cc(C(C)(C)C)c(O)c(C(C)(C)C)c3)CC2)no1 [Example 24-D] | 470 nM
12 | CC(=O)SC[C@@H](C)C(=O)[N-]c1c[n+](N2CCN(C(=O)[C@@H]3CSC(=O)N3)CC2)no1 [Example 28, N-((S)-3-(Acetylthio)isobutyryl)-3-(4-((R)-2-oxo-4-thiazolidinecarbonyl)piperazin-1-yl)sydnonimine] | 710 nM
13 | COc1cc(CN2CCN([n+]3cc([N-]C(=O)CSC(=O)c4ccccc4)on3)CC2)cc(OC)c1OC [Example 49, N-((Benzoylthio)acetyl)-3-(4-(3,4,5-trimethoxyphenylmethyl)piperazin-1-yl)sydnonimine] | 46 nM
14 | COc1cc(CC(=O)N2CCN([n+]3cc([N-]C(=O)[C@H](C)CSC(C)=O)on3)CC2)cc(OC)c1OC [Example 25] | 630 nM
15 | CC(C)(C)c1cc(SCC(=O)N2CCN([n+]3cc([N-]C(=O)CSC(=O)c4ccccc4)on3)CC2)cc(C(C)(C)C)c1O [Example 33, N-((Benzoylthio)acetyl)-3-(4-(3,5-di-t-butyl-4-hydroxyphenylthio)acetylpiperazin-1-yl)sydnonimine] | 180 nM
16 | C[C@H](CSC(=O)c1ccccc1)C(=O)[N-]c1c[n+](N(C)C)no1 [Example 5, N-((S)-3-(Benzoylthio)isobutyryl)-3-dimethylaminosydnonimine] | 570 nM
17 | COc1ccc(CN2CCN([n+]3cc([N-]C(=O)CSc4cc(C(C)(C)C)c(O)c(C(C)(C)C)c4)on3)CC2)cc1OC [Example 47, N-((3,5-Di-t-butyl-4-hydroxyphenylthio)acetyl)-3-(4-(3,4-dimethoxyphenylmethyl)piperazin-1-yl)sydnonimine] | 940 nM
18 | CC(=O)SCC(=O)[N-]c1c[n+](N2CCN(C(=O)CSC(C)=O)CC2)no1 [Example 38-C, N-((Acetylthio)acetyl)-3-(4-((acetylthio)acetyl)piperazin-1-yl)sydnonimine] | 230 nM
19 | COc1ccccc1N1CCN([n+]2cc([N-]C(=O)[C@H](C)CSC(=O)c3ccccc3)on2)CC1 [Example 11, N-((S)-3-(Benzoylthio)isobutyryl)-3-(4-(2-methoxyphenyl)piperazin-1-yl)sydnonimine] | 160 nM
20 | COc1cc(CC(=O)N2CCN([n+]3cc([N-]C(=O)CSC(=O)c4ccccc4)on3)CC2)cc(OC)c1OC [Example 32] | 45 nM
21 | COc1cc(CCN(C)[n+]2cc([N-]C(=O)[C@H](C)CSC(=O)c3ccccc3)on2)cc(OC)c1OC [Example 64, N-((S)-3-(Benzoylthio)isobutyryl)-3-(N'-(2-(3,4,5-trimethoxyphenyl)ethyl)-N'-methylamino)sydnonimine] | 910 nM
22 | COc1ccc(CN2CCN([n+]3cc([N-]C(=O)CSC(C)=O)on3)CC2)c(OC)c1OC [Example 50, N-((Acetylthio)acetyl)-3-(4-(2,3,4-trimethoxyphenylmethyl)piperazin-1-yl)sydnonimine] | 140 nM
23 | COc1cc(CCN2CCN([n+]3cc([N-]C(=O)[C@H](C)CSC(=O)c4ccccc4)on3)CC2)cc(OC)c1OC [Example 45, N-((S)-3-(Benzoylthio)isobutyryl)-3-(4-(2-(3,4,5-trimethoxyphenyl)ethyl)piperazin-1-yl)sydnonimine] | 780 nM
24 | CC(=O)SCC(=O)N1CCN([n+]2cc([N-]C(=O)CSC(=O)c3ccccc3)on2)CC1 [Example 30-D, 3-(4-(Acetylthio)acetyl)piperazin-1-yl)-N-((benzoylthio)acetylsydnonimine] | 120 nM

System: anesthetized rat
Assay: Blood pressure-lowering effect in anesthetized rat
Type: in vivo
Conditions: duodenal administration; dose causing a decrease in the blood pressure by 30%
Description: Male Sprague Dawley rats weighing 280 to 450 g were anesthetized with sodium pentobarbital (50 mg/kg, i.p.) and fixed in the supine position. A canula was inserted into the trachea of each animal. Then the blood pressure of the animal was measured (AP-621G, Nippon Kohden Corp.) through a polyethylene tube (PE50) inserted into the right femoral artery via a pressure transducer (Life Kit DTS, DX-300, Nippon Kohden Corp.) and the heart rate was determined from the pulse wave (AT-610G, Nippon Kohden Corp.). A canula (PE10) for injecting the maintenance anesthetic drug (sodium pentobarbital 20 mg/kg/h) was inserted into the right femoral vein. The abdominal region was medianly sectioned and a canula (PE50 connected to a injection needle 23G) for duodenal drug administration was inserted thereinto and fixed with Aronalpha for surgical use. After 60-90 minutes of recovery period, the drug was administered into duodenum. After administering the drug, the blood pressure was measured until the average blood pressure returned to the level before the administration.
As the indication of the blood pressure-lowering effect of each drug, the dose causing a decrease in the blood pressure by 30%, based on the level before the administration, was calculated from the dose-response curve and employed as the 30% effective dose (ED30). Moreover, the time required for the recovery to the level corresponding to 50% of the maximum decrease in the blood pressure (half duration) was measured at each dose. Then the half duration at the above-mentioned ED30 was calculated and employed as the indication of the lasting time of the blood pressure-lowering effect (half duration at ED30).
As the test compounds, use was made of the compounds of the present invention obtained in the above Examples. Table C summarizes the results. Table C

Row | SMILES | Blood pressure-lowering effect ED30
25 | CCN1CCN([n+]2cc([N-]C(=O)CCSC(=O)c3c(F)cccc3F)on2)CC1 [Example 146, N-(3-(2,6-Difluorobenzoylthio)propionyl)-3-(4-ethylpiperazin-1-yl)sydnonimine] | 0.6 mg/kg

Same assay, conditions: duodenal administration; half duration at ED30 (recovery to 50% of the maximum decrease in blood pressure)

Row | SMILES | Blood pressure-lowering effect Half duration
26 | CCN1CCN([n+]2cc([N-]C(=O)CCSC(=O)c3c(F)cccc3F)on2)CC1 [Example 146, N-(3-(2,6-Difluorobenzoylthio)propionyl)-3-(4-ethylpiperazin-1-yl)sydnonimine] | 45 min
